# According to paper PMC10721786, “Development of a potent benzonitrile-based inhibitor of glutaminyl-peptide cyclotransferase-like protein (QPCTL) with antitumor efficacy” (Signal Transduction and Targeted Therapy, 2023):
# Key:
# Raji and B16F10 cells = experiment: Cell viability (CCK-8) in Raji and B16F10 cells; format: cell-based; details: Fig. S5
# Protocol: Raji cells (5000 cells/well), B16F10 cells (3000 cells/well) and BMDM (10000 cells/well) were plated in 96-well and cell viability was examined at the time points shown in the figures, with the help of Cell Counting Kit 8 (CCK-8) (Share-bio, Cat. # B-CCK8) according to the manufacturer’s recommendations.
# pGlu-CD47 [1] = experiment: hCD47-CC2C6 binding to various cancer cells (H929, HCT116, Huh7, SKOV3, SU-DHL-8, T24, H1299, MCF-7); format: cell-based, human; details: 500 nM, 48 h
# Protocol: (§1) Binding to cell surface CD47 was assessed by staining cells with fluorochrome-labeled antibodies clone CC2C6 (BioLegend, Cat. # 323102) and B6H12 (Abcam, Cat. # ab134485) to human CD47 at a dilution of 1:100 in PBS containing 1% FBS (FACS buffer) for 30 min on ice, while protected from light. SIRPα binding to CD47 was assessed by incubating cells with PE labeled recombinant human SIRPα/ CD172α Protein, Fc tag (ACRO Biosystems, Cat. # SIA-HP252) or PE labeled mouse SIRPα Protein, His tag (ACRO Biosystems, Cat. # SIA-MP2H6) for 1 hour on ice, while protected from light.
# B16F10 cells = experiment: In vitro phagocytosis of B16F10 cells by mouse macrophages; format: cell-based
# Protocol: (§2) Eight-week-old C57BL/6 wild-type mice were obtained from Shanghai Slaccas Laboratory Animal Co., Ltd.. To obtain bone marrow derived macrophage (BMDM), femora and tibiae were flushed with ice-cold PBS, and erythrocytes were lysed with RBC lysis buffer. Then bone marrow cells were cultured in DMEM medium with 10 % FBS and 100 U/ mL penicillin, and 100 μg/ mL streptomycin in the presence of 50 ng/ mL mouse M-CSF (Macrophage-Colony Stimulating Factor) (PeproTech), 0.1 mM Sodium pyruvate (Gibco, Cat. # 11360-70) and 10 mM HEPES (Gibco, Cat. # 15630-080) for 7 days.
# (§3) Phagocytosis assay were conducted as previously described. Briefly, macrophages were plated 1 x 10^5 cells per well in a 48-well plate in complete DMEM medium, supplemented with M-CSF overnight before the experiment. Cancer cells were stained with 5 μM CFSE at 37 °C for 10 min. Each phagocytotic reaction reported in this work was performed by co-culture of target cells and macrophages for 4 hours at 37 °C. Macrophages were identified with APC-labeled anti-F4/80 (Biolegend, Cat. # 123116), and flow cytometry (BD FACSCanto II, San Jose, CA) was performed. Phagocytosis was calculated as the percentage of CFSE^+F4/80^+ cells (Q2) among CFSE^+ cells (Q2+Q3): phagocytosis (%) = [Q2 / (Q2+ Q3)] x100 %.
# CD47/SIRPα = experiment: Cell surface binding of human or mouse SIRPα protein to tumor cells (Raji, B16F10), flow cytometry; format: cell-based
# Protocol: as §1
# Raji cells = experiment: In vitro phagocytosis of Raji cells by mouse macrophages; format: cell-based, human
# Protocol: as §2, §3
# pGlu-CD47 [2] = experiment: Flow cytometry of pGlu-CD47 (hCD47-CC2C6 binding) in HEK293T cells; format: cell-based, human
# Protocol: as §1
# BMDM cells = experiment: Cell viability and phagocytosis ability of BMDM; format: cell-based, mouse
# [3] = In vivo toxicity in mice (blood routine, serum biochemistry, HE histology); parameters: species or system mouse
# Protocol: Briefly, male mice were implanted subcutaneously with 5 x 10^5 B16F10 cells resuspended in 100 μL of DMEM on Day 0. Anti-PD-1 antibody or mouse IgG2a isotype control was dosed at 80 µg per mouse intraperitoneally starting on day 6 after tumor implantation, followed by a once-a-week regimen. QPCTL inhibitors was intraperitoneally administered at 25 mg/kg once a day since day 6. Tumors were measured every three days, and mice were sacrificed on day 15. Mouse organs and blood were collected for blood routine, blood serum biochemistry examination and histological evaluation.
# Blood routine and blood serum biochemistry examination of mice. Whole blood was collected in EDTA anticoagulant tubes for blood routine test and heparin sodium tubes for blood serum biochemistry examination. Tubes were gently inverted several times to thoroughly mix the blood and anticoagulant. The routine blood test was tested by Automatic Hematology Analyzer (TEK8500H4-0502, TECOM SCIENCE, China). Blood serum was obtained by centrifugation at 4℃ at 4000 rpm for 10 minutes. Serum creatinine (CR) was determined by CR kit (PUREBIO, Cat. # CR01), urea nitrogen (BUN) was determined by BUN kit (PUREBIO, Cat. # URE01), alanine aminotransferase (ALT) was determined by ALT kit (PUREBIO, Cat. # ALT01) and […] was determined by AST kit (PUREBIO, Cat. # AST01) according to the manufacturer’s instructions. […]
# pGlu-CD47 [4] = experiment: Flow cytometry of pGlu-CD47 (hCD47-CC2C6 binding) in Raji cells; format: cell-based, human; details: 100 nM, 48 h
# Protocol: as §1
smiles,measurement,setting,value
Cn1cncc1C1CCN(c2c(C#N)cccc2-c2ccc(F)nc2)CC1 [QP5038],cell viability,Raji and B16F10 cells,did not markedly impair
same,CD47 pyroglutamation in various types of cancer cells,pGlu-CD47 [1],significantly attenuated
same,phagocytosis of B16F10 cells,"B16F10 cells; 10 μM inhibitor 48 h, in combination with TA99, mouse macrophages",significantly boosted
same,flow cytometry quadrant Q1,"B16F10 cells; 48 h, 10 µM",34.7
same,flow cytometry quadrant Q2 (CFSE+F4/80+ cells),"B16F10 cells; 48 h, 10 µM",5.39
same,flow cytometry quadrant Q3,"B16F10 cells; 48 h, 10 µM",59.0
same,flow cytometry quadrant Q4,"B16F10 cells; 48 h, 10 µM",0.89
same,efficiency on phagocytosis compared with SEN177 and PQ912,"B16F10 cells; B16F10 and Raji cells, 10 μM 48 h, Fig. 1h–k, Fig. S6",much better than that of SEN177 and PQ912
same,binding of human or mouse SIRPα protein to cell surface,CD47/SIRPα,significantly reduced
same,phagocytosis of Raji cells,"Raji cells; 10 μM inhibitor 48 h, synergized with rituximab, mouse macrophages",significantly boosted
same,flow cytometry quadrant Q1,"Raji cells; 48 h, 10 µM",26.4
same,flow cytometry quadrant Q2 (CFSE+F4/80+ cells),"Raji cells; 48 h, 10 µM",2.74
same,flow cytometry quadrant Q3,"Raji cells; 48 h, 10 µM",70.1
same,flow cytometry quadrant Q4,"Raji cells; 48 h, 10 µM",0.70
same,inhibitory effect on CD47 pyroglutamation compared to SEN177 and PQ912,"pGlu-CD47 [2]; 100 nM, 48 h",superior inhibitory effects
same,IC50,"pGlu-CD47 [2]; Homo sapiens, HEK-293T, treatment 48 h, read-out: IC50, dose-dependent inhibition of pGlu-CD47",3.3 ± 0.5 nM
same,cell viability of macrophages,BMDM cells; Fig. S8a,did not attenuate
same,phagocytotic ability of macrophages,"BMDM cells; apoptotic Jurkat cells, Fig. S8b",did not attenuate
same,organ damage (HE staining),"[3]; C57B/L6 mice, 25 mg/kg daily for 15 days, Fig. S10",would not cause
same,abnormal blood composition,"[3]; mice, 25 mg/kg daily, Fig. S11",would not cause
same,inhibitory effect on CD47 pyroglutamation compared to SEN177 and PQ912,pGlu-CD47 [4],superior inhibitory effects
